According to patent US8431530B2, “Compositions and methods for treating aids or cancer by inhibiting the secretion of microparticles” (priority 2009, dated 2013):

Key:
[1] = test system: Gag-GFP + HIV-1wtNef-RFP secretion, Jurkat; assay: Gag-GFP secretion in presence of wtNef-RFP, fluorescent plate reader assay; format: cell-based; conditions: for Secretion relative to untransfected cells: Jurkat, Gag-GFP + HIV-1wtNef-RFP + peptide, 48 hours
Description: Cells were transfected with the pQBI-HIV Gag-GFP construct, wtNef-RFP, and either the antagonist (SMRwt peptide), the negative control SMRmt peptide, or a random peptide sM1 with Chariot for 48 hours. The conditioned supernatants from these cultures were assayed for GFP fluorescence by plate reader.

[2] = test system: R7 in Jurkat cells, HEK293 cells, THP-1 monocytes, U937 monocytes; assay: Western blot of Nef and p24 in supernatant pellets; format: cell-based, HIV; conditions: R7 co-transfection, HEK293, THP-1, U937, 400,000×g supernatant pellets
Description: (§1) At 2 hours, 3 days, 6 days, 9 days, 13 days, 15 days, 17 days, 20 days, 23 days, 27 days and 36 days post-transfection, 0.5 ml supernatant were collected from each plate, mixed with 0.5 ml fresh media and analyzed by p24 ELISA assay. 1.5 ml of supernatant were collected from each plate and spun in a TLA100 rotor at 400,000×g for 1 hour to create the pellets. The pellets were used for Western blot analysis with p24 mAb and Nef mAb.
No effect is observed for the negative control peptide (NefSMRmut). […] This is possibly due to antagonism of trafficking of viral component(s) to the cytoplasmic membrane. Ultimately this would (i) shutdown the HIV infection and (ii) block progression to AIDS.

pNL4-3 in 293 cells = assay: p24 assay of virion production after pNL4-3 co-transfection; format: cell-based, HIV; conditions: for p24: co-transfected with pNL4-3; for Effect (a/b): p24 of sample / p24 of pNL4-3 + sM1
Description: pNL4-3 is a clone containing the viral genome. Transfection into cells allows expression of the viral genome and ultimately virion formation and release. The amount of virion production in the extracellular supernatant is measured through p24 protein (viral protein). Samples were collected at 48 hours and 96 hours post-infection.
At 48 hr postinfection two plates in each group were removed and analyzed by: • a. p24 assay • b. Nef assay • c. Infectivity assay • At 96 hr postinfection the other two plates in each group were removed and analyzed by: • a. p24 assay • b. Nef assay • c. Infectivity assay

Jurkat cells = assay: Cellular toxicity assay, fluorescein diacetate and propidium iodide; format: cell-based; conditions: peptide alone by Chariot, 48 hours
From the text: FIG. 12 is a composite of pictures showing the result of cellular toxicity assay for cells transfected with SMRwt or SMRmt peptide. Panels A-1 and B-1: Propidium iodide staining of cells transfected with SMRwt and SMRmt peptide, respectively. Panels A-2 and B-2: Fluorescein diacetate staining of cells transfected with SMRwt and SMRmt peptide, respectively. Panels A-3 and B-3: Phase microscope image of cells transfected with SMRwt and SMRmt peptide, respectively.
SMRwt or SMRmut (negative control) peptide alone were transfected into Jurkat cells using Chariot. The transfected cells were allowed to grow for 48 hours. The cells were assayed by Fluorescein diacetate (FD; taken up by live cells and converted to FITC making cells fluoresce green) and propidium iodide (PI; diffuse across porous membranes of dying cells fluoresing red inside those cells) for cytotoxicity.

R7 in U937 monocytes = assay: p24 ELISA of supernatant after R7 co-transfection; format: cell-based, HIV; conditions: up to 36 days
Description: Jurkat cells, HEK293 cells, THP-1 monocytes and U937 monocytes were co-transfected with either R7 […] Nef SMR wt (antagonist) or with R7+Nef SMR mt (nonfunctional antagonist) by Chariot™ Kit. The transfection efficiency was 30-40%.
R7 is a clone containing the viral genome. Transfection into cells allows expression of the viral genome and ultimately virion formation and release. The amount of virion production in the extracellular supernatant is measured through p24 protein (viral protein).
as §1

R7 in Jurkat cells = assay: Electron microscopy of viral particle distribution; format: cell-based, HIV; conditions: R7 co-transfection, day 6 versus day 14
From the text: FIG. 4A is a composite of diagrams showing ELISA analysis of p24 concentration in Jurkat cells (panel A), HEK293 cells (panel B), THP-1 Monocytes (panel C) and U937 monocytes (panel D). FIG. 4B is a composite of confocal microscope pictures showing blocking of p24 release in Jurkat cells by SMRwt peptide (panel A) but not by SMRrmt peptide (panel B). FIG. 4C is a composite of confocal and electron microscope pictures showing viral particle distribution in Jurkat cells at day 6 post-transfection with R7 and SMRwt peptide (panel A-1) or with R7 and SMRmt peptide (panel B-1). FIG. 4D is a composite of confocal and electron microscope pictures showing viral particle distribution in Jurkat cells at day 14 post-transfection with R7 and SMRwt peptide (panel A-2) or with R7 and SMRmt peptide (panel B-2), FIG. 4E is a composite of confocal and electron microscope pictures showing viral particle distribution in subcellular structures in Jurkat cells at day 6 post-transfection with R7 and SMRwt peptide (panel A-1) or with R7 and SMRmt peptide (panel B-1) in Jurkat cells and at day 14 post-transfection with R7 and SMRwt peptide (panel A-2) or with R7 and SMRmt peptide (panel B-2) in Jurkat cells.
FIGS. 4C-4E are electron microscopic pictures showing Jurkat cells transfected with R7/SMRwt or […] at day 6 (FIG. 4C) and day 14 (FIG. 4D) post transfection. […]

Substance: H2N-AGFPVAAAGFPVDYKDDDDK-OH (H-AGFPVAAAGFPVDYKDDDDK-OH) [SMRmt]
- Secretion relative to untransfected cells ([1]; first line): 55.73x
- Secretion relative to untransfected cells ([1]; second line (not explained)): 43.51x
- amount of virus production (Western blot of p24 and Nef) [2]: No effect
- p24 (pNL4-3 in 293 cells; 293, 48 hr): 30 pg/mL
- Effect (a/b) (pNL4-3 in 293 cells; 293, 48 hr): 0.67
- p24 (pNL4-3 in 293 cells; 293, 96 hr): 1125 pg/mL
- Effect (a/b) (pNL4-3 in 293 cells; 293, 96 hr): 1.17

Substance: H-VGFPVAAVGFPVDYKDDDDK-OH [SMRwt]
- release of Gag virus-like particles in the presence of wtNef-RFP (in words, Table III) ([1]; Jurkat and THP-1, Gag-GFP + wtNef-RFP): blocks release of Gag virus-like particles
- Secretion relative to untransfected cells ([1]; first line): 1.3x
- Secretion relative to untransfected cells ([1]; second line (not explained)): 1.16x
- amount of virus production (Western blot of p24 and Nef) [2]: drastically reduced to zero or close to zero
- dying cells (propidium iodide) (Jurkat cells): < 2%
- cytotoxicity (in words) (Jurkat cells; FD/PI): very little or no cytotoxicity
- p24 in supernatant (R7 in U937 monocytes): little p24
- p24 (pNL4-3 in 293 cells; 293, 48 hr): 90 pg/mL
- Effect (a/b) (pNL4-3 in 293 cells; 293, 48 hr): 2
- p24 (pNL4-3 in 293 cells; 293, 96 hr): 345 pg/mL
- Effect (a/b) (pNL4-3 in 293 cells; 293, 96 hr): 0.359
- release of virus as measured by EM (R7 in Jurkat cells): delays release of virus from infected cells
